From US20070292951A1, “MEDIA AND METHODS FOR CULTURING PLANT EMBRYOS” (priority 1997, published 2007)

Columns and labels:
[1] = system: Brassica napus microspores; test: Microspore embryogenesis in liquid half-strength NLN medium with different osmotica; type: cell-based, Brassica napus L. cv. Topas; conditions: for Induction of MD embryos: within two weeks, 13% sucrose, 8% mannitol or 25% PEG 4000 (w/v), mannitol and PEG media with about 0.08%-0.1% sucrose
Method: A mixed population consisting of microspores from mid- and late-uninucleate stages to young bicellular pollen was isolated from the flower buds using a protocol modified from that described by Ferrie and Keller, in: Gamborg and Phillips (eds) Plant Cell, Tissue and Organ Culture, Fundamental methods, pp 155-164, 1993 (Springer Verlag). For each treatment, twelve surface-sterilized buds (3.6-4.2 mm in length) were macerated in 5 ml half-strength B5 washing medium (Gamborg et al., Exp. Cell Res. 50:151-158, 1968) containing 13% sucrose (w/v) in 50 ml beakers. The crude suspension was filtered through 44 μm Nytex nylon mesh, both beakers and meshes were rinsed, and a total of 20 ml was collected into 50 ml centrifuge tubes and centrifuged at 150×g for 3 minutes. The pellets were resuspended in 5 ml of washing medium, the washing procedure was repeated twice, and the final supernatant was carefully pipetted out, leaving the pellet in approximately 0.3-0.4 ml of washing medium. Final resuspension was done by adding filter-sterilized half-strength NLN medium (Lichter, Z. Pflanzenphysiol. 105:427-434, 1982) containing 13% (w/v) sucrose as the control treatment; in the other two treatments, ½ NLN sucrose-free medium with 8% (w/v) mannitol or 25% (w/v) PEG 4000 (Fluka Chemika) was added, respectively. Therefore, the ½ NLN-mannitol and -PEG media contained only about 0.08%-0.1% sucrose, remaining from the washing medium.
Aliquots of […] of microspore suspension were plated into 10×15 mm sterile petri dishes, with an approximate plating density of 40,000 microspores/ml. Plates were first incubated at 35° C. for one hour followed by 33° C. for the next 14-18 hours and then placed on a shaker (50 rpm) in the dark at 24° C. for 14 days. During the first 8 days in culture, PEG and mannitol media were gradually diluted by adding to the plates an adequate volume of a simple ½ NLN medium, containing no sucrose. mannitol, or PEG, to give a final concentration of approximately 22% PEG and 7% mannitol. The concentration of sucrose in the control treatment was lowered the same way to a final concentration of 11%. After two weeks, plates with MD embryos were placed under light (16/8 hours photoperiod) at 24° C. for an additional week. Experiments dealing with mannitol as osmoticum were repeated three times with five replicates, while experiments dealing with PEG and sucrose as a control were repeated at least ten times with a minimum of three replicates.
Microspores at late unicellular stage and young bicellular pollen were isolated from the flower buds using a protocol for Brassica napus, modified from that described by Ferrie and Keller, in: Gamborg and Phillips (eds) Plant Cell, Tissue and Organ Culture, Fundamental methods, pp 155-164, 1993 (Springer Verlag). Twelve surface-sterilized buds (3.6-4.2 mm in length) were macerated in a 50 ml beaker with 5 ml half-strength B5 washing medium (Gamborg et al., Exp. Cell Res. 50:151-158, 1968) containing 13% sucrose (w/v). The crude suspension was filtered through 44 μm nylon mesh and centrifuged at 150×g for 3 minutes, and the pellet was resuspended in 5 ml of washing medium. The washing procedure was repeated twice, and the final supernatant was carefully pipetted out, leaving the pellet in approximately 0.3-0.4 ml of washing medium. Final resuspension was done by adding filter-sterilized half-strength NLN medium (Lichter, Z. Pflanzenphysiol 105:427-434, 1982) containing either 13% sucrose (w/v) as a control or 25% (w/v) polyethylene glycol 4000 (Fluka Chemika). Therefore, the final ½ NLN-PEG medium contained only about 0.08%-0.1% sucrose, remaining from the washing medium.
Aliquots of 10 ml of the microspore suspension were plated into 10×15 mm sterile petri dishes, with an approximate plating density of 40,000 microspores/ml. Plates were first incubated at 35° C. for one hour followed by 33° C. for the next 14-18 hours and then placed on a shaker (50 rpm) in the dark at 24° C. for 14 days. […]

[2] = system: Brassica napus MD embryos; test: Conversion of three-week-old MD embryos into plantlets on hormone-free solid medium; type: cell-based; conditions: embryos grown on the named osmoticum
Method: Plates containing the embryos may then be placed under light at 24° C. for an additional week. Once placed under light, the embryos generally increase in size and become green quickly. Within one week under light, cotyledons are typically well-developed, often widely opened and dark green, and the embryos are morphologically similar to zygotic embryos dissected from ovules (see FIGS. 2A-2C). The three-week embryos may then be rinsed and transferred to culture containers containing a suitable medium, such as half-strength B5 medium containing 1% sucrose and no growth regulators. The conversion frequency is the percentage of MD embryos that develop roots, true leaves and a green color within 3-4 weeks. Aliquots of 10 ml of the microspore suspension were plated into 10×15 mm sterile petri dishes, with an approximate plating density of 40,000 microspores/ml. Plates were first incubated at 35° C. for one hour followed by 33° C. for the next 14-18 hours and then placed on a shaker (50 rpm) in the dark at 24° C. for 14 days. […] Conversion frequency (%) of sucrose- and PEG-cultured MD embryos was recorded based on presence of roots, appearance of first true leaves and green color of plantlets, with three replicates for each treatment.

Structure (SMILES)	Cell divisions of microspores after heat shock treatment ([1]; mannitol solution)	Induction of MD embryos [1]	Embryo length at heart-shaped stage ([1]; SEM)	Embryo length at torpedo stage ([1]; SEM) [μm]	Proembryo size at globular-to-heart-shaped transition ([1]; about day 8, SEM)	Embryo length, cotyledonary stage ([1]; after two weeks in culture)	Starch grains and protein bodies in cotyledon stage embryos ([1]; light microscopy)	Morphology of three-week-old MD embryos compared with zygotic embryos (14 and 15 DPA) ([1]; three weeks, last week under light)	Plantlet morphology after transfer to solid medium [2]
OC[C@@H](O)[C@@H](O)[C@H](O)[C@H](O)CO [mannitol]	no divisions were observed	yielded no embryos							
OC[C@H]1O[C@@](CO)(O[C@H]2O[C@H](CO)[C@@H](O)[C@H](O)[C@H]2O)[C@@H](O)[C@@H]1O [sucrose]		developed into embryos	approximately 300 μm	≥ 400	150-250 μm	2-4 mm	abundant starch grains with no protein bodies	pale green, had elongated embryo axes and relatively small underdeveloped cotyledons	hypocotyls were short, often thick (hyperhydrated) and aberrant
